# Assay: Accelerated stability testing: impurity analysis by reverse phase HPLC
# Format: physicochemical
# Description: Each of the formulations prepared was subjected to accelerated stability testing at 40° C.
# The analysis of the impurities was undertaken using reverse phase High Performance Liquid Chromatography (HPLC). HPLC is a technique that is widely used and well known in the art. HPLC can be used to measure the potency of the docetaxel where potency is defined as a percentage of the initial concentration of docetaxel. HPLC can also be used to measure the relative proportions of known and unknown impurities in a docetaxel formulation. Any suitable HPLC method which will separate the impurities may be used.
# Impurity levels were calculated by peak area normalisation.
# [1] = Example 1, one month, accelerated stability 40° C.
# [2] = Example 2, one month, accelerated stability 40° C.
# [3] = Example 8, Initial (Docetaxel = docetaxel itself)
structure (smiles),measurement,setting,value
"CC(=O)O[C@@]12CO[C@@H]1C[C@H](O)[C@@]1(C)C(=O)[C@H](O)C3=C(C)[C@@H](OC(=O)[C@H](O)[C@@H](NC(=O)OC(C)(C)C)c4ccccc4)C[C@@](O)([C@@H](OC(=O)c4ccccc4)[C@H]21)C3(C)C [Docetaxel, (2R,3S)-N-carboxy-3-phenylisoserine,N-tert-butylester, 13 ester with 5β-20-epoxy-1,2α,4,7β,10β,13α-hexahydroxytax-11-en-9-one 4-acetate 2 benzoate]",Impurity B (RRT = 0.89),"Example 1, initial time point",0.08 % peak area
same,Impurity E (RRT = 1.33),"Example 1, initial time point",0.07 % peak area
same,Impurity F (RRT = 1.47),"Example 1, initial time point",0.10 % peak area
same,Total Impurities,"Example 1, initial time point",0.25 % peak area
same,Impurity B (RRT = 0.89),[1],0.08 % peak area
same,Impurity E (RRT = 1.33),[1],0.07 % peak area
same,Impurity F (RRT = 1.47),[1],0.10 % peak area
same,Total Impurities,[1],0.25 % peak area
same,Impurity E (RRT = 1.34),"Example 2, initial time point",0.16 % peak area
same,Impurity F (RRT = 1.48),"Example 2, initial time point",0.09 % peak area
same,Total Impurities,"Example 2, initial time point",0.25 % peak area
same,Impurity E (RRT = 1.34),[2],0.16 % peak area
same,Impurity F (RRT = 1.48),[2],0.09 % peak area
same,Total Impurities,[2],0.25 % peak area
same,Impurity RRT 0.866,[3],0.05 % peak area
same,Impurity RRT 1.821,[3],0.08 % peak area
same,Total impurity,[3],0.13 % peak area

# Reference: US20090118354A1, “Liquid Pharmaceutical Formulations of Docetaxel” (MAYNE PHARMA LIMITED, priority 2005, published 2009)
